Measurements: the NIST ThermoML archive (doi:10.1016/j.fluid.2010.08.022)

Conditions: 101.33 kPa; for mass density: Vibrating tube method; for speed of sound: Sing-around technique in a fixed-path interferometer; for viscosity: Visco Elite L rheometer

CCCCCCCC/C=C\CCCCCCCC(=O)O.NCCO [2-hydroxyethylammonium oleate]
Conditions	mass density [kg/m3]	speed of sound [m/s]	viscosity [mPa·s]
310.91 K, Liquid crystal of unknown type	928.395	–	–
311.16 K, Liquid crystal of unknown type	928.237	1466.6	–
311.41 K, Liquid crystal of unknown type	928.077	1465.8	–
311.66 K, Liquid crystal of unknown type	927.918	1465	–
311.91 K, Liquid crystal of unknown type	927.76	1464.2	–
312.16 K, Liquid crystal of unknown type	927.599	1463.4	–
312.41 K, Liquid crystal of unknown type	927.441	1462.6	–
312.66 K, Liquid crystal of unknown type	927.283	1461.8	–
312.91 K, Liquid crystal of unknown type	927.122	1461	–
313.16 K, Liquid crystal of unknown type	926.962	1460.2	–
313.41 K, Liquid crystal of unknown type	926.805	1459.4	–
313.66 K, Liquid crystal of unknown type	926.647	1458.6	–
313.91 K, Liquid crystal of unknown type	926.486	1457.8	–
314.16 K, Liquid crystal of unknown type	926.328	1457	–
314.41 K, Liquid crystal of unknown type	926.167	1456.2	–
314.66 K, Liquid crystal of unknown type	926.009	1455.4	–
314.91 K, Liquid crystal of unknown type	925.851	1454.6	–
315.16 K, Liquid crystal of unknown type	925.69	1453.8	–
315.41 K, Liquid crystal of unknown type	925.531	1453	–
315.66 K, Liquid crystal of unknown type	925.372	1452.2	–
315.91 K, Liquid crystal of unknown type	925.214	1451.4	–
316.16 K, Liquid crystal of unknown type	925.054	1450.6	–
316.41 K, Liquid crystal of unknown type	924.895	1449.8	–
316.66 K, Liquid crystal of unknown type	924.735	1449	–
316.91 K, Liquid crystal of unknown type	924.575	1448.2	–
317.16 K, Liquid crystal of unknown type	924.416	1447.4	–
317.41 K, Liquid crystal of unknown type	924.257	1446.6	–
317.66 K, Liquid crystal of unknown type	924.098	1445.8	–
317.91 K, Liquid crystal of unknown type	923.938	1445	–
318.16 K, Liquid crystal of unknown type	923.779	1444.2	–
318.4 K, Liquid crystal of unknown type	923.621	1443.4	–
318.66 K, Liquid crystal of unknown type	923.461	1442.6	–
318.91 K, Liquid crystal of unknown type	923.302	1441.8	–
319.16 K, Liquid crystal of unknown type	923.142	1441	–
319.41 K, Liquid crystal of unknown type	922.982	1440.2	–
319.65 K, Liquid crystal of unknown type	922.821	1439.4	–
319.91 K, Liquid crystal of unknown type	922.663	1438.6	–
320.16 K, Liquid crystal of unknown type	922.502	1437.8	–
320.41 K, Liquid crystal of unknown type	922.343	1437	–
320.66 K, Liquid crystal of unknown type	922.184	1436.2	–
320.91 K, Liquid crystal of unknown type	922.026	1435.5	–
321.16 K, Liquid crystal of unknown type	921.864	1434.7	–
321.41 K, Liquid crystal of unknown type	921.705	1433.9	–
321.66 K, Liquid crystal of unknown type	921.546	1433.1	–
321.91 K, Liquid crystal of unknown type	921.386	1432.3	–
322.15 K, Liquid crystal of unknown type	921.225	1431.5	–
322.41 K, Liquid crystal of unknown type	921.066	1430.8	–
322.66 K, Liquid crystal of unknown type	920.906	1430	–
322.91 K, Liquid crystal of unknown type	920.746	1429.2	–
323.16 K, Liquid crystal of unknown type	920.588	1428.4	–
323.41 K, Liquid crystal of unknown type	920.427	1427.6	–
323.66 K, Liquid crystal of unknown type	920.268	1426.8	–
323.91 K, Liquid crystal of unknown type	920.108	1426	–
324.16 K, Liquid crystal of unknown type	919.948	1425.3	–
324.41 K, Liquid crystal of unknown type	919.788	1424.5	–
324.66 K, Liquid crystal of unknown type	919.629	1423.7	–
324.91 K, Liquid crystal of unknown type	919.469	1422.9	–
325.16 K, Liquid crystal of unknown type	919.309	1422.1	–
325.41 K, Liquid crystal of unknown type	919.149	1421.3	–
325.66 K, Liquid crystal of unknown type	918.989	1420.5	–
325.91 K, Liquid crystal of unknown type	918.828	1419.7	–
326.16 K, Liquid crystal of unknown type	918.669	1419	–
326.41 K, Liquid crystal of unknown type	918.508	1418.2	–
326.66 K, Liquid crystal of unknown type	918.347	1417.4	–
326.91 K, Liquid crystal of unknown type	918.187	1416.6	–
327.16 K, Liquid crystal of unknown type	918.029	1415.8	–
327.41 K, Liquid crystal of unknown type	917.867	1415.1	–
327.66 K, Liquid crystal of unknown type	917.707	1414.3	–
327.91 K, Liquid crystal of unknown type	917.547	1413.5	–
328.16 K, Liquid crystal of unknown type	917.387	1412.7	–
328.41 K, Liquid crystal of unknown type	917.226	1412	–
328.66 K, Liquid crystal of unknown type	917.066	1411.2	–
328.9 K, Liquid crystal of unknown type	916.907	1410.4	–
329.16 K, Liquid crystal of unknown type	916.746	1409.6	–
329.41 K, Liquid crystal of unknown type	916.585	1408.9	–
329.66 K, Liquid crystal of unknown type	916.424	1408.1	–
329.91 K, Liquid crystal of unknown type	916.265	1407.3	–
330.16 K, Liquid crystal of unknown type	916.103	1406.5	–
330.41 K, Liquid crystal of unknown type	915.943	1405.8	–
330.66 K, Liquid crystal of unknown type	915.784	1405	–
330.91 K, Liquid crystal of unknown type	915.622	1404.2	–
331.16 K, Liquid crystal of unknown type	915.461	1403.5	–
331.4 K, Liquid crystal of unknown type	915.3	1402.7	–
331.66 K, Liquid crystal of unknown type	915.14	1401.9	–
331.91 K, Liquid crystal of unknown type	914.98	1401.2	–
332.16 K, Liquid crystal of unknown type	914.818	1400.4	–
332.41 K, Liquid crystal of unknown type	914.658	1399.6	–
332.66 K, Liquid crystal of unknown type	914.496	1398.8	–
332.91 K, Liquid crystal of unknown type	914.336	1398.1	–
333.16 K, Liquid crystal of unknown type	914.175	1397.3	–
333.41 K, Liquid crystal of unknown type	914.015	1396.5	–
333.66 K, Liquid crystal of unknown type	913.853	1395.7	–
333.91 K, Liquid crystal of unknown type	913.692	1395	–
334.16 K, Liquid crystal of unknown type	913.531	1394.2	–
334.41 K, Liquid crystal of unknown type	913.369	1393.4	–
334.66 K, Liquid crystal of unknown type	913.208	1392.6	–
334.91 K, Liquid crystal of unknown type	913.046	1391.9	–
335.16 K, Liquid crystal of unknown type	912.885	1391.1	–
335.4 K, Liquid crystal of unknown type	912.725	1390.3	–
335.66 K, Liquid crystal of unknown type	912.564	1389.6	–
335.91 K, Liquid crystal of unknown type	912.403	1388.8	–
336.16 K, Liquid crystal of unknown type	912.241	1388	–
336.41 K, Liquid crystal of unknown type	912.079	1387.2	–
336.66 K, Liquid crystal of unknown type	911.917	1386.5	–
336.91 K, Liquid crystal of unknown type	911.757	1385.8	–
337.16 K, Liquid crystal of unknown type	911.595	1385	–
337.41 K, Liquid crystal of unknown type	911.432	1384.2	–
337.66 K, Liquid crystal of unknown type	911.272	1383.5	–
337.91 K, Liquid crystal of unknown type	911.11	1382.7	–
338.15 K, Liquid crystal of unknown type	–	–	225.9
338.16 K, Liquid crystal of unknown type	910.95	1381.9	–
338.41 K, Liquid crystal of unknown type	910.787	1381.2	–
338.66 K, Liquid crystal of unknown type	910.626	1380.4	–
338.9 K, Liquid crystal of unknown type	910.464	1379.7	–
339.16 K, Liquid crystal of unknown type	910.301	1378.9	–
339.41 K, Liquid crystal of unknown type	910.142	1378.1	–
339.66 K, Liquid crystal of unknown type	909.978	1377.4	–
339.9 K, Liquid crystal of unknown type	909.815	1376.6	–
340.16 K, Liquid crystal of unknown type	909.655	1375.9	–
340.4 K, Liquid crystal of unknown type	909.492	1375.1	–
340.66 K, Liquid crystal of unknown type	909.33	1374.4	–
340.91 K, Liquid crystal of unknown type	909.169	1373.6	–
341.16 K, Liquid crystal of unknown type	909.006	1372.9	–
341.41 K, Liquid crystal of unknown type	908.843	1372.1	–
341.66 K, Liquid crystal of unknown type	908.682	1371.3	–
341.9 K, Liquid crystal of unknown type	908.521	1370.6	–
342.16 K, Liquid crystal of unknown type	908.356	1369.8	–
342.41 K, Liquid crystal of unknown type	908.195	1369.1	–
342.65 K, Liquid crystal of unknown type	908.033	1368.3	–
342.9 K, Liquid crystal of unknown type	907.872	1367.6	–
343.15 K, Liquid crystal of unknown type	907.717	1366.9	–
348.15 K, Liquid crystal of unknown type	–	–	129.1
353.15 K, Liquid crystal of unknown type	–	–	97.5
358.15 K, Liquid crystal of unknown type	–	–	79.2
368.15 K, Liquid	–	–	50.5
